Test results: patent US9505767B2, “Pyrazolo[1,5-A]pyrimidin-7(4H)-onehistone demethylase inhibitors” (Genentech, Inc., priority 2013, dated 2016)

Target: T1, KDM5A (Homo sapiens, UniProt P29375)
T1 construct: Full length recombinant Flag tagged KDM5A protein was purified from Sf9 insect cells; Flag; made in house; host or cells: Sf9 insect cells
Experiment: KDM5A Demethylase Assay (TR-FRET Assay-C)
Format: biochemical
Settings: full length recombinant Flag tagged KDM5A, 2 nM, HEPES pH 7.0, 1 μM α-ketoglutarate, read-out: C KDM5A HTRF (IC50)
Protocol: Full length recombinant Flag tagged KDM5A protein was purified from Sf9 insect cells. The demethylation reaction buffer contained 50 mM HEPES pH 7.0, 0.01% Triton X-100, 0.5 mM ascorbate, 2 mM DTT, 1 μM α-ketoglutarate, and 100 μM Fe2(NH4)2(SO4)2. In a 10 μL demethylation reaction system, 2 nM recombinant KDM5A was added to compounds in the above buffer (Vt 5 uL) in a 384 well Proxi Plate (Perkin Elmer Corp.) and then 0.1 μM biotinylated H3K9me1 peptide (1-21 aa, New England Peptide, Vt 5 uL) was added to initiate the reaction (Vt 10 uL). (All protein/reagent concentrations are final concentrations.) Reactions were incubated for 30 minutes at room temperature, and then quenched by addition of 5 uL stop buffer (3 mM EDTA, 50 mM TrisCl pH 7.5, 0.01% Triton X-100, 0.01 mg/mL BSA) followed by addition of 5 uL of detection reagents (buffer as above without EDTA but with addition of 200 nM SA-XL665 (CisBio) and 2 nM Eu(W1024)-anti-H3K4Me1-2 antibody (PerkinElmer)). After a 30 minute incubation assays were read on a Perkin-Elmer Envision equipped with appropriate filters. IC50s were calculated using standard dose-response equations and relative to a Max (no inhibition) and Min (no enzyme or quenched enzyme) controls.

T1 sequence (P29375 whole entry): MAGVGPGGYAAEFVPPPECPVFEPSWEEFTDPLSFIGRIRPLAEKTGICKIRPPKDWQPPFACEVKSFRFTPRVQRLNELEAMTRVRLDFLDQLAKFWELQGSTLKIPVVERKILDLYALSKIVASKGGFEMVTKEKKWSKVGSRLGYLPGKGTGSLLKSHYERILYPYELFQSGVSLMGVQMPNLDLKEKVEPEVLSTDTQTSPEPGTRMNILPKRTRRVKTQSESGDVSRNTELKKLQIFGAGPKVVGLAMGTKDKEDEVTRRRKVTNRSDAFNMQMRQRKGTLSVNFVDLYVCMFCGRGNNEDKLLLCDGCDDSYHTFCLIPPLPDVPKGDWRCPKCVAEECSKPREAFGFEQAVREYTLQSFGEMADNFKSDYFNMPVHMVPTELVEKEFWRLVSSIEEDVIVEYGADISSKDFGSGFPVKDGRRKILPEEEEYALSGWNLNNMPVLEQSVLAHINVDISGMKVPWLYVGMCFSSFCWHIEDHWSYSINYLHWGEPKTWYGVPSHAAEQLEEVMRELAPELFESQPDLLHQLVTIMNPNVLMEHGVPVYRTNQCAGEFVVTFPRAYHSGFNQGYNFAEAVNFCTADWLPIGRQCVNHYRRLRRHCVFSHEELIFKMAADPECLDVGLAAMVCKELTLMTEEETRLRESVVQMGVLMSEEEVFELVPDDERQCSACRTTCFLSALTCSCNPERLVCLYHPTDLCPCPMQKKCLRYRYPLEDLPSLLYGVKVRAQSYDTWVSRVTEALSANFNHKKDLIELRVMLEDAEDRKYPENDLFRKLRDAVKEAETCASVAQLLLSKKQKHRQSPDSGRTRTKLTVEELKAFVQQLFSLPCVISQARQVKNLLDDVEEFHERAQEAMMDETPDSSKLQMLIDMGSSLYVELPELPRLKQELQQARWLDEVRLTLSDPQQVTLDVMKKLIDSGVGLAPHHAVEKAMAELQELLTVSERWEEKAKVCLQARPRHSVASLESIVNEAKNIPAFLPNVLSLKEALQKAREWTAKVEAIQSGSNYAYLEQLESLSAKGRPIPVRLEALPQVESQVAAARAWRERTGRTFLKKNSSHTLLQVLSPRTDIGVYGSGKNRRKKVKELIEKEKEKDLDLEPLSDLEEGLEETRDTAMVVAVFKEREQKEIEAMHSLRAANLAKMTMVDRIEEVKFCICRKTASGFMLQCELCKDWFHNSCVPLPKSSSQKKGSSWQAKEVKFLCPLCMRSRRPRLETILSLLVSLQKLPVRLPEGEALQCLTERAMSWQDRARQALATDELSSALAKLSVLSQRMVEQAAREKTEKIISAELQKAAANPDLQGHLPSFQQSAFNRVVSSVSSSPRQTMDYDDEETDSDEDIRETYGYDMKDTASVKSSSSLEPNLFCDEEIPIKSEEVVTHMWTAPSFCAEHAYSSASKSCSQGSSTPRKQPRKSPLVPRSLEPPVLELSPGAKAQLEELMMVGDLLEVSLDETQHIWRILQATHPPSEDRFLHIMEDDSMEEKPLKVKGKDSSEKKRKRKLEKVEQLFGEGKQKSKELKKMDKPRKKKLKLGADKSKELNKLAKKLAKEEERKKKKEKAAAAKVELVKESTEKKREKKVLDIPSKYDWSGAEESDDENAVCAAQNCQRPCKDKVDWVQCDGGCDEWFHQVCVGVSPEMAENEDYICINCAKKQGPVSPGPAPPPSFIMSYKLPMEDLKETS

IC50 [nM]	SMILES
33.2	Cc1ccc(-n2cc(-c3cnn4c(=O)c(C5CC5)c(C)[nH]c34)cn2)nc1 [Example 27, 6-cyclopropyl-5-methyl-3-(1-(5-methylpyridin-2-yl)-1H-pyrazol-4-yl)pyrazolo[1,5-a]pyrimidin-7(4H)-one]
32.2	O=c1c2c([nH]c3c(-c4cnn(-c5ccccn5)c4)cnn13)CCC2 [Example 42, 3-(1-(pyridin-2-yl)-1H-pyrazol-4-yl)-6,7-dihydro-4H-cyclopenta[d]pyrazolo[1,5-a]pyrimidin-8(5H)-one]
23.4	Cc1[nH]c2c(-n3cnc(-c4ccccn4)c3)cnn2c(=O)c1C(C)C [Example 46, 6-isopropyl-5-methyl-3-(4-(pyridin-2-yl)-1H-imidazol-1-yl)pyrazolo[1,5-a]pyrimidin-7(4H)-one]
